Data on 54 molecules can be found in US20260097047A1, “Small molecule inhibitors of the ribosome biogenesis factor NVL2” (Board of Regents, The University of Texas System, priority 2023, published 2026).

Structures are written as SMILES.

The first assay deals with HCT116 cells. Nature of the assay: Cell viability assay (CellTiter-Glo, 72 hours) in HCT116 human colorectal cancer cells. Format: cell-based. The settings on record: Homo sapiens, HCT-116; Table 1; HCT116, 72 hours; read-out: Activity. Put shortly: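 Ten-point IC50 came from an asymmetric five-parameter fit of luminescence corrected to vehicle wells. ATP content was measured by CellTiter-Glo 72 h after dosing at 37 °C. Cells were seeded at 2,000/well the day before, with 0.5% DMSO in all wells.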
(In general: In ATP-based viability assays light output follows the ATP content of the culture.)
Turning to `C#CCOCCN1C(=O)c2ccccc2Sc2cc(NC(=O)N3CCC3)ccc21` [N-(11-Oxo-10-(2-(prop-2-yn-1-yloxy)ethyl)-10,11-dihydrodibenzo[b,f][1,4]thiazepin-7-yl) azetidine-1-carboxamide], the IC50 is less than 500 nM.

The same assay, now with this note: Homo sapiens, HCT-116; Table 3; HCT116, 72 hours; read-out: Activity.
Regarding `C#CCOCCN1C(=O)c2ccccc2Sc2cc(NC(=O)Nc3ccccc3)ccc21` [Table 3: —(CH2)2OCH2CCH; Ph; CH/CH, 1-(11-Oxo-10-(2-(prop-2-yn-1-yloxy)ethyl)-10,11-dihydrodibenzo[b,f][1,4]thiazepin-7-yl)-3-phenylurea], the IC50 was less than 500 nM.

Still in this assay, the particulars now being: Homo sapiens, HCT-116; Table 5; HCT116, 72 hours; read-out: Activity.
Take `C#Cc1cccnc1Nc1ccc2c(c1)Sc1ccccc1C(=O)N2CC#CC` [10-(But-2-yn-1-yl)-7-((3-ethynylpyridin-2-yl)amino)dibenzo[b,f][1,4]thiazepin-11 (10H)-one]: the IC50 is less than 500 nM.
In the case of `CC#CCN1C(=O)c2ccccc2Sc2cc(Nc3nc(C)cnc3C)ccc21` [10-(But-2-yn-1-yl)-7-((3,6-dimethylpyrazin-2-yl)amino)dibenzo[b,f][1,4]thiazepin-11 (10H)-one], the IC50 is less than 500 nM.
On to `CCC/C=C/CN1C(=O)c2ccccc2Sc2cc(Nc3cc(F)ccn3)ccc21` [(E)-7-((4-Fluoropyridin-2-yl)amino)-10-(hex-2-en-1-yl)dibenzo[b,f][1,4]thiazepin-11(10H)-one], for which the IC50 was less than 500 nM.
Same read-out and setting: the value for `CC#CCN1C(=O)c2ccccc2Cc2cc(Nc3ncnc(C#N)c3C)ccc21` [6-((5-(But-2-yn-1-yl)-6-oxo-6,11-dihydro-5H-dibenzo[b,e]azepin-2-yl)amino)-5-methylpyrimidine-4-carbonitrile] was less than 500 nM.
In the case of `CC#CCN1C(=O)c2ccccc2Sc2cc(Nc3nnccc3C)ccc21` [10-(But-2-yn-1-yl)-7-((4-methylpyridazin-3-yl)amino)dibenzo[b,f][1,4]thiazepin-11 (10H)-one], the IC50 was less than 500 nM.
As for `CC#CCN1C(=O)c2ccccc2Sc2cc(Nc3nccc(C#N)c3F)ccc21` [2-((10-(But-2-yn-1-yl)-11-oxo-10,11-dihydrodibenzo[b,f][1,4]thiazepin-7-yl)amino)-3-fluoroisonicotinonitrile], the IC50 is less than 500 nM.
On the same count and under the same terms, the value for `CCC/C=C/CN1C(=O)c2ccccc2Sc2cc(Nc3ncccc3C#N)ccc21` [(E)-2-((10-(Hex-2-en-1-yl)-11-oxo-10,11-dihydrodibenzo[b,f][1,4]thiazepin-7-yl)amino) nicotinonitrile] was less than 500 nM; that for `CC#CCN1C(=O)c2ccccc2Sc2cc(Nc3ncc(C)cc3F)ccc21` [10-(But-2-yn-1-yl)-7-((3-fluoro-5-methylpyridin-2-yl)amino)dibenzo[b,f][1,4]thiazepin-11 (10H)-one] was less than 500 nM.
Same read-out and setting: the value for `CCC/C=C/CN1C(=O)c2ccccc2Sc2cc(Nc3ncccn3)ccc21` [(E)-10-(Hex-2-en-1-yl)-7-(pyrimidin-2-ylamino)dibenzo[b,f][1,4]thiazepin-11 (10H)-one] was 1000 to 5000 nM.

Still in this assay, the particulars now being: Homo sapiens, HCT-116; Table 6; HCT116, 72 hours; read-out: Activity.
As for `CC#CCN1C(=O)c2ccccc2Sc2cc(NCC3(C)COC3)ccc21` [10-(But-2-yn-1-yl)-7-(((3-methyloxetan-3-yl)methyl)amino)dibenzo[b,f][1,4]thiazepin-11 (10H)-one], the IC50 was less than 500 nM.

The assay is the same for the next values; noted with them: Table 3; HCT116, 72 hours; read-out: Activity.
Take `CC#CCN1C(=O)c2ccccc2Sc2cc(NC(=O)Nc3ccc4oc(=O)n(C)c4c3)cnc21`: the IC50 is less than 500 nM.

The assay is the same for the next values; noted with them: Table 4; HCT116, 72 hours; read-out: Activity.
On to `CC#CCN1C(=O)c2ccccc2Sc2cc(NC(=S)Nc3ccc(OC)cc3)ccc21` [Table 4: —CH2CCMe; 4-MeOPh; CH], for which the IC50 is less than 500 nM.
On the same count and under the same terms, as for `CC#CCN1C(=O)c2ccccc2Sc2cc(NC(=S)NC3COC3)cnc21` [Table 4: —CH2CCMe; oxetan-3-yl; N], the figure is less than 500 nM.

The same assay, now with this note: Table 5; HCT116, 72 hours; read-out: Activity.
As to `CC#CCN1C(=O)c2ccccc2Sc2cc(Nc3ncccc3OC)cnc21`, the IC50 is less than 500 nM.
Still for that read-out and setting: the value for `CC#CCN1C(=O)c2ccccc2Sc2cc(Nc3ncc(C)cc3C)cnc21` was less than 500 nM.

The assay is the same for the next values; noted with them: Table 6; HCT116, 72 hours; read-out: Activity.
In the case of `O=C1c2ccccc2Sc2cc(NC3COC3)ccc2N1CC#CCl` [Table 6: —CH2CCCl; oxetan-3-yl; CH/CH; S], the IC50 is less than 500 nM.
As to `O=C1c2ccccc2Sc2cc(NC3CC4(COC4)C3)cnc2N1CC#CCl`, the IC50 was less than 500 nM.
The same measure, in the same setting: as for `CC#CCN1C(=O)c2ccccc2Cc2cc(NC3COC3)ccc21`, the figure is less than 500 nM.

The assay is the same for the next values; noted with them: Table 7; cell viability assay, CellTiter-Glo, 72 hours; scaffold drawing 42 with R^2, R^3, X/Y, Z; read-out: Activity.
Consider `C#CCOCCN1C(=O)c2ccccc2Sc2cc(NC(=O)c3ccc(N=[N+]=[N-])cc3)ccc21` [—(CH2)2OCH2CCH; 4-N3Ph; CH/CH; S], for which the IC50 is less than 500 nM.
On the same count and under the same terms, as for `COCCN1C(=O)c2ccccc2Sc2cc(NC(=O)c3ccc(CN)cc3)ccc21` [—(CH2)2OMe; 4-(NH2CH2)Ph; CH/CH; S], the figure is 1000 to 5000 nM; as for `COCCN1C(=O)c2ccccc2Sc2cc(NC(=O)c3cscn3)ccc21` [—(CH2)2OMe; thiazol-4-yl; CH/CH; S], 1000 to 5000 nM; as for `COCCN1C(=O)c2ccccc2Sc2cc(NC(=O)c3ccc(OC)cc3C)ccc21` [—(CH2)2OMe; 2-Me,4-MeOPh; CH/CH; S], 1000 to 5000 nM.
Still for that read-out and setting: as for `COCCN1C(=O)c2ccccc2Sc2cc(NC(=O)C3CC3)ccc21` [—(CH2)2OMe; cPr; CH/CH; S], the figure is 1000 to 5000 nM; as for `COCCN1C(=O)c2ccccc2Sc2cc(NC(=O)c3ccc(OC(F)F)c(F)c3)ccc21` [—(CH2)2OMe; 3-F,4-F2HCOPh; CH/CH; S], 1000 to 5000 nM; as for `COCCN1C(=O)c2ccccc2Sc2cc(NC(=O)c3ccccc3OC)ccc21` [—(CH2)2OMe; 2-MeOPh; CH/CH; S], less than 500 nM.

The same assay, now with this note: Table 8; analogs of scaffold drawing 43 defined by R^2, R^3, X/Y, W; read-out: Activity (IC50 class, cell viability assay).
`O=C(Nc1cnc2c(c1)Sc1cc(Cl)ccc1C(=O)N2CC#CCl)C1CC2(CC(=NO)C2)C1` (stereo not shown): the IC50 is less than 500 nM.
Turning to `CC#CCN1C(=O)c2ccccc2Sc2cc(NC(=O)C3COC3)ccc21` [—CH2CCMe; oxetan-3-yl; CH/CH; CH], the IC50 was less than 500 nM.
As for `CC#CCN1C(=O)c2ccc(Cl)cc2Sc2cc(NC(=O)C3CCCO3)cnc21` (stereo not shown), the IC50 was less than 500 nM.
The same measure, in the same setting: the value for `CC#CCN1C(=O)c2ccc(F)cc2Sc2cc(NC(=O)c3ccc(OC)cc3)ccc21` [—CH2CCMe; 4-MeOPh; CF/CH; CH] was less than 500 nM.
With `CC#CCN1C(=O)c2ccc(Cl)cc2Sc2cc(NC(=O)[C@H]3C[C@@H](O)C3)ccc21` [—CH2CCMe; cis-3-OH-cBu; CCI/CH; CH], the IC50 is less than 500 nM.
Regarding `CC#CCN1C(=O)c2ccccc2Sc2cc(NC(=O)c3ccoc3)ccc21` [—CH2CCMe; furan-3-yl; CH/CH; CH], the IC50 is less than 500 nM.
Turning to `CC#CCN1C(=O)c2cc(F)ccc2Sc2cc(NC(=O)C3CC4(CC(=O)C4)C3)ccc21`, the IC50 was less than 500 nM.
The same measure, in the same setting: as for `CC#CCN1C(=O)c2ccc(F)cc2Sc2cc(NC(=O)c3ccc4scnc4c3)ccc21`, the figure is less than 500 nM.
In the case of `CO[C@H]1C[C@H](C(=O)Nc2cnc3c(c2)Sc2ccccc2C(=O)N3CC#CCF)C1` [—CH2CCCH2F; trans-3-MeOcBu; CH/CH; N], the IC50 was less than 500 nM.
Consider `CC#CCN1C(=O)c2ccc(C#N)cc2Sc2cc(NC(=O)[C@@H]3C[C@H]3COC)cnc21` (relative stereo) [—CH2CCMe; trans-2-MeOCH2-cPr; CCN/CH; N], for which the IC50 is less than 500 nM.
Take `CC#CCN1C(=O)c2ccc(Cl)cc2Sc2cc(NC(=O)C=CCO)ccc21` [—CH2CCMe; CH═CHCH2OH; CCI/CH; CH]: the IC50 was less than 500 nM.
Turning to `CO[C@H]1C[C@@H](C(=O)Nc2cnc3c(c2)Sc2ccccc2C(=O)N3CC#CC2CC2)C1` [—CH2CC^cPr; cis-3-MeOcBu; CH/CH; N], the IC50 is less than 500 nM.
In the case of `CC#CCN1C(=O)c2ccc(F)cc2Sc2cc(NC(=O)C3CC4(CC(=NOC)C4)C3)ccc21` (stereo not shown), the IC50 is less than 500 nM.
The same measure, in the same setting: as for `CC#CCN1C(=O)c2ccc(Cl)cc2Sc2cc(NC(=O)NCCOC)cnc21` [—CH2CCMe; NH(CH2)2OMe; CCl/CH; N], the figure is less than 500 nM; as for `CC#CCN1C(=O)c2ccccc2Sc2cc(NC(=O)C3CC4(CC(=NO)C4)C3)cnc21` (stereo not shown), less than 500 nM; as for `CC#CCN1C(=O)c2ccc(F)cc2Sc2cc(NC(=O)C3CCCO3)cnc21` (stereo not shown) [—CH2CCMe; tetrahydrofuran-2-yl; CF/CH; N], less than 500 nM.
As for `CC#CCN1C(=O)c2ccccc2Sc2cc(NC(=O)C34CC(C(F)(F)F)(C3)C4)ccc21`, the IC50 lay in the range of 500 to 1000 nM.
On the same count and under the same terms, as for `CC#CCN1C(=O)c2ccccc2Sc2cc(NC(=O)C3CCN(C)C3=O)ccc21` (stereo not shown), the figure is 500 to 1000 nM.
Regarding `CC#CCN1C(=O)c2ccccc2Sc2cc(NC(=O)C#CCOC)ccc21` [—CH2CCMe; CCCH2OMe; CH/CH; CH], the IC50 lay in the range of 500 to 1000 nM.
Same read-out and setting: the value for `CO[C@H]1C[C@H](C(=O)Nc2cnc3c(c2)Sc2ccccc2C(=O)N3CC#CC(F)(F)F)C1` [—CH2CCCF3; trans-3-MeOcBu; CH/CH; N] was less than 500 nM.

Still in this assay, the particulars now being: Table 9; HCT116, 72 hours; read-out: Activity.
Take `CC1c2ccccc2C(=O)N(CC#CC2CC2)c2ccc(NC(=O)CC3COC3)cc21` (stereo not shown): the IC50 is less than 500 nM.
Same read-out and setting: the value for `CC1c2ccccc2C(=O)N(CC#CC2CC2)c2ccc(NC(=O)[C@H]3C[C@H](O)C3)cc21` (stereo partly shown) was less than 500 nM; that for `CC#CCN1C(=O)c2ccccc2C(C)c2cc(NC(=O)C34CC(OC)(C3)C4)ccc21` (stereo not shown) was less than 500 nM; that for `CO[C@H]1C[C@@H](C(=O)Nc2ccc3c(c2)C(C)(O)c2ccccc2C(=O)N3CC#CCl)C1` (stereo partly drawn) [Table 9: —CH2CCCl; cis-3-MeOcBu; CMeOH] was less than 500 nM.
In the case of `CC#CCN1C(=O)c2ccccc2Cc2cc(NC(=O)C34CC(O)(C3)C4)ccc21`, the IC50 was less than 500 nM.
Take `COCCNC(=O)Nc1ccc2c(c1)C(C)c1ccccc1C(=O)N2CC#CC1CC1` (stereo not shown) [Table 9: —CH2CC^cPr; NH(CH2)2OMe; CHMe]: the IC50 is less than 500 nM.
In the case of `CC1c2ccccc2C(=O)N(CC#CC2CC2)c2ccc(NC(=O)C3CC4(CC(=NO)C4)C3)cc21` (stereo not shown), the IC50 was less than 500 nM.

Staying with this assay, now noted: cell viability assay; Table 10 analogs of scaffold drawing 45 defined by R2, R3, X/Y, W; read-out: Activity.
For the molecule `CO[C@H]1C[C@H](C(=O)Nc2cnc3c(c2)Sc2ccccc2C(=O)N3CC#CCF)C1` [—CH2CCCH2F; trans-3-MeOcBu; CH/CH; N], the IC50 is less than 500 nM.
